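Grown in 96-well plates, cells were treated for 48 hours with each compound at five concentrations. Insufficient inhibition: endpoint recorded as highest concentration tested. GI50 marks 50% less growth.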 Active and inactive are the calls of the source. Rule as the data show it: active = GI50 up to about 1.1 µM and inactive = higher.
How the values were obtained:
Test in all cases: NCI anticancer screen, dose series, 48 h
SK-MEL-5 = test system: SK-MEL-5
M14 = test system: M14
OVCAR-5 = test system: OVCAR-5
MDA-MB-435 = test system: MDA-MB-435
MDA-N = test system: MDA-N
UACC-62 = test system: UACC-62
UACC-257 = test system: UACC-257
UO-31 = test system: UO-31
HOP-18 = test system: HOP-18
LOX IMVI = test system: LOX IMVI
HCT-116 = test system: HCT-116
SNB-78 = test system: SNB-78
HT-29 = test system: HT-29
SF-539 = test system: SF-539
K562 = test system: K562
TK-10 = test system: TK-10
IGROV-1 = test system: IGROV-1
HCC 2998 = test system: HCC 2998
SR = test system: SR
XF498 = test system: XF498

Measured: GI50

CN1CCN(CCCN2c3ccccc3Sc3ccc(C(F)(F)F)cc32)CC1
inactive: SK-MEL-5 3.09 µM | M14 1.88 µM | OVCAR-5 10.1 µM | MDA-MB-435 3.35 µM | MDA-N 3.6 µM | UACC-62 2.1 µM | UACC-257 2.6 µM | UO-31 5.21 µM | HOP-18 9.89 µM | LOX IMVI 4.57 µM | HCT-116 8.04 µM | SNB-78 15.7 µM | HT-29 2.44 µM | SF-539 7.28 µM

CC(=O)NNc1nc(C)c(C(/C=C/c2ccc(Cl)cc2)=N/NC(=O)C[N+](C)(C)C)s1
inactive: SK-MEL-5 > 100 µM | M14 > 100 µM | OVCAR-5 > 100 µM | K562 > 100 µM | TK-10 > 100 µM | UACC-62 > 100 µM | UACC-257 > 100 µM | UO-31 > 100 µM | HOP-18 > 100 µM | IGROV-1 > 100 µM | LOX IMVI > 100 µM | HCT-116 > 100 µM | HT-29 > 100 µM | HCC 2998 > 100 µM | SF-539 > 100 µM

Nc1nc(N)c(-c2ccccc2)c(C(=O)Nc2nccs2)n1
inactive: SK-MEL-5 > 100 µM | M14 > 100 µM | OVCAR-5 > 100 µM | K562 > 100 µM | TK-10 > 100 µM | UACC-62 > 100 µM | UACC-257 > 100 µM | UO-31 > 100 µM | HOP-18 > 100 µM | IGROV-1 > 100 µM | LOX IMVI > 100 µM | HCT-116 > 100 µM | SNB-78 > 100 µM | HT-29 > 100 µM | HCC 2998 > 100 µM | SF-539 > 100 µM

CCOC(=O)NC(=O)c1cn(CCN2CCN(C(=O)CCCCCCCCCCNc3ncnc4[nH]cnc34)CC2)c(=O)[nH]c1=O
inactive: SK-MEL-5 50.4 µM | SR > 100 µM | M14 > 100 µM | OVCAR-5 > 100 µM | K562 58.7 µM | TK-10 > 100 µM | UACC-62 25.8 µM | UACC-257 > 100 µM | UO-31 > 100 µM | HOP-18 > 100 µM | IGROV-1 > 100 µM | LOX IMVI > 100 µM | HCT-116 40.1 µM | SNB-78 32.4 µM | HT-29 > 100 µM | HCC 2998 > 100 µM | SF-539 > 100 µM

CN(C)CCNC(=O)c1cccc2nc3c(Cl)cccc3nc12
inactive: SK-MEL-5 5.06 µM | XF498 2.92 µM | SR 1.51 µM | M14 6.24 µM | OVCAR-5 7.93 µM | K562 2.31 µM | TK-10 4.09 µM | UACC-62 2.02 µM | UACC-257 4.93 µM | UO-31 8.05 µM | HOP-18 > 30.7 µM | IGROV-1 6.41 µM | LOX IMVI 3.14 µM | HCT-116 3.16 µM | HT-29 3.18 µM | HCC 2998 8.85 µM | SF-539 4.75 µM

O=C(O)CC/C(=N\Nc1nsc2ccccc12)c1ccc(Cl)cc1
inactive: SK-MEL-5 22.2 µM | M14 25.1 µM | OVCAR-5 54.5 µM | MDA-MB-435 27.5 µM | MDA-N 31.3 µM | K562 23 µM | TK-10 46.9 µM | UACC-62 19.8 µM | UACC-257 25.5 µM | UO-31 21.1 µM | HOP-18 4.19 µM | IGROV-1 30.1 µM | LOX IMVI 12.2 µM | HCT-116 17.9 µM | SNB-78 31.6 µM | HT-29 29.8 µM | HCC 2998 17.5 µM | SF-539 31.5 µM

O=[N+]([O-])c1nccn1CC(O)c1ccccc1 (stereo unspecified)
inactive: SK-MEL-5 > 100 µM | XF498 > 100 µM | M14 > 100 µM | OVCAR-5 > 100 µM | K562 > 100 µM | TK-10 > 100 µM | UACC-62 > 100 µM | UACC-257 > 100 µM | UO-31 > 100 µM | HOP-18 > 100 µM | IGROV-1 > 100 µM | LOX IMVI > 100 µM | HT-29 > 100 µM | SF-539 > 100 µM

— ChEMBL document CHEMBL1201862, “PubChem BioAssay data set” (2004)
